The values below come from article PMC10771525 (Communications Biology, 2024).

As usually defined, the EC50 is the concentration giving half of the maximal effect. What is called EC80 is the point of the concentration-response curve where the effect stands at 80%. A word on the pEC50: it is the negative decadic logarithm of the EC50, by convention in mol/L.

The test system of assay [1] is MRGPRX2. The note with it: MRGPRX2 recombinantly expressed in HEK293 cells; read-out: EC50, calcium mobilization assays; cited from earlier work. From the text: Other CXCLs contain sequences that are similar to the proposed pentapeptidic motif, but are either deeply buried in the typical 3D structure of the chemokine, or located near acidic amino acids, that are not tolerated by the negatively charged binding pocket of MRGPRX2 (see sequence alignment in Supplementary Fig. 4 for further information). […] No ...
(In general: Calcium assays in cells follow changes in intracellular calcium, usually with a dye or a luminescent sensor.)

Assay [2] deals with MC5R (Homo sapiens, UniProt P33032). The note with it: reference agonist, CHO-K1, Arrestin.
Assay [3] deals with MC1R (Homo sapiens, UniProt Q01726). The note with it: reference agonist, CHO-K1, Arrestin.
For assay [4], the target named is MC3R (Homo sapiens, UniProt P41968). The note with it: reference agonist, CHO-K1, Arrestin.
For assay [5], the target named is T1, MRGPRX2 (Homo sapiens, UniProt Q96LB1).
T1 sequence (Q96LB1 1-330): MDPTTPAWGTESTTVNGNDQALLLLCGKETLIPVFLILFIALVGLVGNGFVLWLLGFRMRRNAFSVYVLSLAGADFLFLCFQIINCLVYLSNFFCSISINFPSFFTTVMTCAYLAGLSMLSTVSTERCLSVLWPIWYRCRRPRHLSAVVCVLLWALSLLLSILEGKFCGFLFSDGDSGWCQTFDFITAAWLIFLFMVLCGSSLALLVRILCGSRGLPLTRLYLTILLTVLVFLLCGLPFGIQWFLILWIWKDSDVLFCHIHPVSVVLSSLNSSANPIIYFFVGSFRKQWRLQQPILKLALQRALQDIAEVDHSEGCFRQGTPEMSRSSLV
The experiment in a line: GPCR panel (control), Arrestin, CHO-K1. Format: cell-based. The note with it: reference agonist.

Assay [6] addresses T2, MLNR (Homo sapiens, UniProt O43193).
T2 construct: expressed in transfected cells; host or cells: CHO-K1
The experiment in a line: GPCR panel (control), Arrestin, CHO-K1. Format: cell-based. The note with it: reference agonist.

For assay [7], the target named is AGTR1 (Homo sapiens, UniProt P30556). The note with it: reference agonist, AGTR1, CHO-K1, Arrestin.
Assay [8] has as its target HTR5A (Homo sapiens, UniProt P47898). The experiment in a line: GPCR panel (control), Arrestin, U2OS. Format: cell-based. The note with it: reference agonist.
Assay [9] deals with HTR1F (Homo sapiens, UniProt P30939). The experiment in a line: GPCR panel (control), Arrestin, U2OS. The assay is classed as cell-based. The note with it: reference agonist.
Assay [10] concerns the target HTR1B (Homo sapiens, UniProt P28222). The experiment in a line: GPCR panel (control), Arrestin, U2OS. Format: cell-based. The note with it: reference agonist.
The target in assay [11] is HTR2A (Homo sapiens, UniProt P28223). The note with it: reference agonist, U2OS, Arrestin.
The target in assay [12] is HTR1E (Homo sapiens, UniProt P28566). The experiment in a line: GPCR panel (control), Arrestin, U2OS. Format: cell-based. The note with it: reference agonist.
Assay [13] concerns the target LTB4R (Homo sapiens, UniProt Q15722). The experiment in a line: GPCR panel (control), Arrestin, CHO-K1. The assay is classed as cell-based. The note with it: reference agonist.
Assay [14] deals with T3, NMU1R (Homo sapiens, UniProt Q9HB89).
T3 construct: expressed in transfected cells; host or cells: U2OS
The experiment in a line: GPCR panel (control), Arrestin, U2OS. The assay is classed as cell-based. The note with it: reference agonist.

The target in assay [15] is OPRM1 (Homo sapiens, UniProt P35372). The note with it: reference agonist, OPRM1, U2OS, Arrestin.
Assay [16] has as its target OPRL1 (Homo sapiens, UniProt P41146). The note with it: reference agonist, OPRL1, CHO-K1, Arrestin.
For assay [17], the target named is T4, MRGPRB2 (Mus musculus, UniProt Q3KNA1).
T4 construct: expressed in transfected cells; host or cells: 1321N1 astrocytoma cells (lentiviral, pLVX MRGPRB2-IRES-mCherry)
T4 sequence (Q3KNA1 1-338): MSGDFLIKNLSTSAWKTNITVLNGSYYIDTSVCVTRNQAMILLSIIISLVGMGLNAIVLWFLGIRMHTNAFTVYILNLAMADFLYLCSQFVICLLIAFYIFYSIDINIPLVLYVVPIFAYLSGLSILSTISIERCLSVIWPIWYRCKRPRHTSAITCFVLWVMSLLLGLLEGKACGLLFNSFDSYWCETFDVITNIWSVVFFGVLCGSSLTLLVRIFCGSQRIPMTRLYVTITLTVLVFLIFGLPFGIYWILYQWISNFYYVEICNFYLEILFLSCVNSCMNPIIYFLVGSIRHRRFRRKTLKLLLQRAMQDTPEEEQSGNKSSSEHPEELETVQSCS
The experiment in a line: calcium mobilization assay, 1321N1 astrocytoma cells stably expressing MRGPRB2. Format: cell-based. Here is the method:
1321N1 Astrocytoma cells were purchased from Sigma Aldrich-Merck KGaA (Darmstadt, Germany, 86030402). The cells were transfected with MRGPRB2 using lentiviral transfection. 1.5 × 10^6 Lenti-X 293 T cells were seeded into each T25 cell culture flask in 5 mL of DMEM, supplemented with 10% FCS, 100 U/mL of penicillin and 100 µg/mL of streptomycin. After 20 h of incubation at 37°C and 5% CO2, when the cells were grown to 80–90% confluence, the medium was exchanged for 5 mL DMEM with 10% FCS without antibiotics and incubated for 4 h. Subsequently, transfection took place using Xfect polymer according to the manufacturer’s protocol (Clontech, Takara Bio Europe, France). The pLVX MRGPRB2-IRES-mCherry-Xfect mixture was added to the packaging cells and they were incubated overnight. […] To know how many astrocytoma cells expressed the target receptor, cells were analyzed under the fluorescence microscope at the m-cherry excitation wavelength of 587 nm using its emission wavelength of 610 nm. Subsequently, fluorescent single clones were isolated by fluorescence-activated cell sorting.
(§1) […]. […] For the determination of baseline fluorescence, HBSS buffer without additives was used. […]

The target in assay [18] is T1, MRGPRX2. The experiment in a line: β-arrestin recruitment assay (enzyme complementation), β-arrestin-CHO cells recombinantly expressing MRGPRX2. The assay is classed as cell-based. The note with it: 90 min incubation, chemiluminescence, means ± SD of 3 to 5 independent experiments in duplicates, read-out: EC50 ± SD, β-arrestin assays. A general note: Recruitment of arrestin is a read-out of receptor activation apart from second messengers.

For assay [19], the target named is T1, MRGPRX2. The experiment in a line: calcium mobilization assay, LN229 cells recombinantly expressing MRGPRX2. Format: cell-based. The note with it: Fluo-4, means ± SD of 3 to 4 independent experiments in duplicates, read-out: EC50 ± SD, calcium mobilization assays. Here is the method:
LN229 glioblastoma cells ATCC®, CRL-2611TM, were a kind gift from Prof. Dr. B. Scheffler (University of Bonn, Germany). LN229 cells stably expressing MRGPRX2 were generated by retroviral transfection. Briefly, GP^+envAM-12 packaging cells (LGC Standards GmbH, Wesel, Germany), derived from mouse fibroblasts, were seeded at a density of 1.5 × 10^6 cells per T25-flask in 5 mL of Dulbecco’s Modified Eagle Medium (DMEM, Thermo Fisher Scientific, Waltham, MA, USA), supplemented with 10% fetal calf serum (FCS), 100 U/mL of penicillin (PAN-Biotech) and 100 µg/mL of streptomycin (PAN-Biotech). Packaging cells were transfected with pLXSN-MRGPRX2 and pcDNA3-VSV-G using Lipofectamine 2000 according to the manufacturer’s instructions (Thermo Fisher Scientific, Darmstadt, Germany). The medium was exchanged for DMEM supplemented with 10% FCS, 100 U/mL of penicillin, 100 µg/mL of streptomycin and 3 mM of sodium butyrate (stock solution: 500 mM in water, sterile-filtered) to enhance virus production. To produce retroviral particles, cells were cultivated for 48 h at 32°C and 5% CO2. On day 4, the target cells LN229 were seeded into T25 cell culture flasks (5 × 10^5 cell). […]
as §1

Assay [20] has as its target T1, MRGPRX2. The experiment in a line: calcium mobilization assay, CHEM-1 cells recombinantly expressing MRGPRX2. Format: cell-based. The note with it: for pEC50: Fig. 3d. The arrangement: host or cells: CHEM-1 adherent rat hematopoietic cells. From the text: To confirm the initial results obtained in the β-arrestin recruitment assays, we established calcium mobilization assays in two different recombinant cell lines, CHEM-1 and LN229 cells, respectively. CHEM-1 cells are adherent rat hematopoietic cells with a high endogenous expression level of the promiscuous Gα15 protein enabling the measuring of calcium signaling of a large variety of GPCRs. […]. Subsequently, we employed recombinant human glioblastoma LN229 cells, a human cell line derived from glioblastoma multiforme tumors. […].
The cell lines CHEM1 and CHEM1-MRGPRX2 are adherent rat cell lines (HTSCHEM-1RTA, HTS058RTA, Merck-Millipore, Darmstadt, Germany); which were cultured under standard cell culture conditions.
A cell-based fluorometric assay was employed for the determination of intracellular calcium release using Fluo-8. Cells were seeded into microtiter plates and incubated under standard cell culture conditions. After 24 h the medium was removed, and the cells were washed with phosphate-buffered saline (PBS). The cells were incubated with loading buffer (40 ml PBS with 2 mM Ca^2+, 800 µl of brilliant black solution (2%), 732 µl of probenecid solution (0.5 M) in 1 N NaOH, 400 µL of pluronic (10%) in water, and 152 µl of Fluo-8 (5.7 ng/ml in water)) for 30 min. For fluorescence readout and compound testing a FLIPR tetra system was used according to the manufacture’s protocol (Molecular Devices, CA 94089- 1136, USA).

Sequence of MC1R (Q01726 whole entry): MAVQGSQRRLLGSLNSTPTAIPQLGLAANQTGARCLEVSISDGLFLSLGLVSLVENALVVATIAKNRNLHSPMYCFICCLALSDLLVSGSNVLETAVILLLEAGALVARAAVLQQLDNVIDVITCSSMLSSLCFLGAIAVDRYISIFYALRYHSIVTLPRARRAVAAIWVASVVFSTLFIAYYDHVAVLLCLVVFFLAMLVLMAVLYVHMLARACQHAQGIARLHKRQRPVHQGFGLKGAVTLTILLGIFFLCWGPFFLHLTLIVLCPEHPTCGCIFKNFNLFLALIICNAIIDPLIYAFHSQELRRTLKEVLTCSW
Sequence of MC5R (P33032 whole entry): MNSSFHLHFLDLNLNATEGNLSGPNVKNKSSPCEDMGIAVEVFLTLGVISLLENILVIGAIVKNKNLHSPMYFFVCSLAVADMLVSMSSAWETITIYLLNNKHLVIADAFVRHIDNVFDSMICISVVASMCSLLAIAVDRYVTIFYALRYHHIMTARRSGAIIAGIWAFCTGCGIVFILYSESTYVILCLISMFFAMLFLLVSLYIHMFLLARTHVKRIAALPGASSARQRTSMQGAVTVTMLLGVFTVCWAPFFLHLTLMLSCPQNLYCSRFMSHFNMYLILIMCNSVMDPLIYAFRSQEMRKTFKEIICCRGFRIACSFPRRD
Sequence of OPRL1 (P41146 whole entry): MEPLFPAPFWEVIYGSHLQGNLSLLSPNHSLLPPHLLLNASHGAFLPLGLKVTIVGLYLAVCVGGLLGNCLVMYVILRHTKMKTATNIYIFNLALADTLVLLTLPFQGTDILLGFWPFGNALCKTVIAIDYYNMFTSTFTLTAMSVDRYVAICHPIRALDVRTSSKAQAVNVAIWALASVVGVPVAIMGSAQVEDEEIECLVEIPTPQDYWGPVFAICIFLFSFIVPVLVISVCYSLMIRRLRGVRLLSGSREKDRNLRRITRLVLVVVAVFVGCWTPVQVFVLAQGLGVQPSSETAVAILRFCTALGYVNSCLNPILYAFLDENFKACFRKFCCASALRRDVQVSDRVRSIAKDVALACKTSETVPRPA
Sequence of AGTR1 (P30556 whole entry): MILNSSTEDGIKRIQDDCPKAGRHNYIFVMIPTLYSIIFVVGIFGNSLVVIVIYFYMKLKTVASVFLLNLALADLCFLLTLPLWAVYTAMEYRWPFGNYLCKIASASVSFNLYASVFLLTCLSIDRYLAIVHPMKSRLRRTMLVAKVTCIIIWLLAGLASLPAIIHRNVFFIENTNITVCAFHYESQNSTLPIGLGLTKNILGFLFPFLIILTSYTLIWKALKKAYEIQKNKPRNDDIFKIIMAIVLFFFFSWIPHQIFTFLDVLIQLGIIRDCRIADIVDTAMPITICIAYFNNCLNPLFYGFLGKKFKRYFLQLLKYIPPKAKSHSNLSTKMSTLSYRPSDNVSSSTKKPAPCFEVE
Sequence of HTR1F (P30939 whole entry): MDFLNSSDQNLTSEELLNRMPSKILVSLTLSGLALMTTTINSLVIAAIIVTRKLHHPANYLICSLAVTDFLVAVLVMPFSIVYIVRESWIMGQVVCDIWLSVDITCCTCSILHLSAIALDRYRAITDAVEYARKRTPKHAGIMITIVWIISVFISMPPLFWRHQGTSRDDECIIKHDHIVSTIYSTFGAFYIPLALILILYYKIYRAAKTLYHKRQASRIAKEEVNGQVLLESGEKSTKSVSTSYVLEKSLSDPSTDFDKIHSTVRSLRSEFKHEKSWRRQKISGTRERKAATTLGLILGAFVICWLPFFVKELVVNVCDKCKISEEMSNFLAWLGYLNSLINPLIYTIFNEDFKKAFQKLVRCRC
Sequence of HTR1E (P28566 whole entry): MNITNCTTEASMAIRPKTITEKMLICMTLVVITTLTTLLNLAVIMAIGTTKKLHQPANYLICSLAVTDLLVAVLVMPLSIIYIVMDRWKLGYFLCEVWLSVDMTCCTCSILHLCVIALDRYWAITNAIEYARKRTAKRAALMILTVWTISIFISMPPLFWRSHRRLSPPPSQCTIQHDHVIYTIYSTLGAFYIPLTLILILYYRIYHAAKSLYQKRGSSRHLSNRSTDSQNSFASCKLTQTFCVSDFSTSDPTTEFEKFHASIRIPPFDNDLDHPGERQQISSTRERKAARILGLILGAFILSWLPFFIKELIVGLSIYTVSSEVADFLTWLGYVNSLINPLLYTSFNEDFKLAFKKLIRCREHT
Sequence of HTR2A (P28223 whole entry): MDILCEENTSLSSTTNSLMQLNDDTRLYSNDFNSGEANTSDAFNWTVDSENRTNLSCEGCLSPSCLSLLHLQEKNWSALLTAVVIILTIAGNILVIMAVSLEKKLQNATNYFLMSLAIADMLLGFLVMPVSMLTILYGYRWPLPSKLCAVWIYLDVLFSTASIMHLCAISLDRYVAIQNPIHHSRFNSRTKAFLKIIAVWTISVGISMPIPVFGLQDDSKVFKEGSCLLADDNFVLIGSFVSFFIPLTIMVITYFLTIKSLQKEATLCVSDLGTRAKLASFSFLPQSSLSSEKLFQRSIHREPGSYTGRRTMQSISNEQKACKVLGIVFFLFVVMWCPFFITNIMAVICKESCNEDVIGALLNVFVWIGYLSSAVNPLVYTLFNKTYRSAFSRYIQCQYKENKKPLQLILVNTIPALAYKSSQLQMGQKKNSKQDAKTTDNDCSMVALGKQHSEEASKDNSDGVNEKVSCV
Sequence of LTB4R (Q15722 whole entry): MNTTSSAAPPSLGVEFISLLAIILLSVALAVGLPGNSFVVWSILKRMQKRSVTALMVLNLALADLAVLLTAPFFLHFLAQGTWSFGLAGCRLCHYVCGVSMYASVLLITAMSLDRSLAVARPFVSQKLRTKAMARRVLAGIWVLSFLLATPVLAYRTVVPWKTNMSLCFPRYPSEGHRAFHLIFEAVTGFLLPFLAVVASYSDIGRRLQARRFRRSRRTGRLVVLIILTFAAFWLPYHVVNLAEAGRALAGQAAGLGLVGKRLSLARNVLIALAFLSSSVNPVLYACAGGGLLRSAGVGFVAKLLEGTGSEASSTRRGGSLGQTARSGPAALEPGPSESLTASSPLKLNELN
T3 sequence (Q9HB89 whole entry): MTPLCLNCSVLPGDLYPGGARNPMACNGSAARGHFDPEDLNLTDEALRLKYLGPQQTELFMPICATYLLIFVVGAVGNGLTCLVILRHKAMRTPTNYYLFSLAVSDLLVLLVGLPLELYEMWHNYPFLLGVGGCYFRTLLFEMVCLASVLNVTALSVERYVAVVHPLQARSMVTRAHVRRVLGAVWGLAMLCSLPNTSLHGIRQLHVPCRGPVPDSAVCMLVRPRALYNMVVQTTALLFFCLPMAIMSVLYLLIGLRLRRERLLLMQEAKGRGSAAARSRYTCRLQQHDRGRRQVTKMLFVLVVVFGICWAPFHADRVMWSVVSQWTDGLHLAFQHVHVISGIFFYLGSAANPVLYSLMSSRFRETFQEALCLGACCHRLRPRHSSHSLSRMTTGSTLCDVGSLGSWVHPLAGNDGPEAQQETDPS
Sequence of HTR5A (P47898 whole entry): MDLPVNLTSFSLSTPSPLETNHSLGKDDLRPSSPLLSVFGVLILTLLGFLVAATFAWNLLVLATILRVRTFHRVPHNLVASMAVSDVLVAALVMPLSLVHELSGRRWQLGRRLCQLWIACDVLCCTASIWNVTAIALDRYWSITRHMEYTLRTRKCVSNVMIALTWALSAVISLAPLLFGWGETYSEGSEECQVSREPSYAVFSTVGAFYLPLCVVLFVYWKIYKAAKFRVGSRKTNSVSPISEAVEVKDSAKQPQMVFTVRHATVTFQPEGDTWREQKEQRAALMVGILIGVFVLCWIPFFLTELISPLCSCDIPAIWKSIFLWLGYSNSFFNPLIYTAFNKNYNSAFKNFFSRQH
Sequence of MC3R (P41968 whole entry): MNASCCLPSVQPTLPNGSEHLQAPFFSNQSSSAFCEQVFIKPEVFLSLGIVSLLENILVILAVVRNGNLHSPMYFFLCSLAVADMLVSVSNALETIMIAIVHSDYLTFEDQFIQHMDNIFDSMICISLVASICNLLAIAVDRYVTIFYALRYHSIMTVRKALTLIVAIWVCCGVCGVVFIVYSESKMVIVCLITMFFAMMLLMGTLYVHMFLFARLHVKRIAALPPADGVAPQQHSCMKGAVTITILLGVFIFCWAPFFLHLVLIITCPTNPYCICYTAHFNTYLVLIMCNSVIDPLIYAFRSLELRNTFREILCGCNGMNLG
Sequence of HTR1B (P28222 whole entry): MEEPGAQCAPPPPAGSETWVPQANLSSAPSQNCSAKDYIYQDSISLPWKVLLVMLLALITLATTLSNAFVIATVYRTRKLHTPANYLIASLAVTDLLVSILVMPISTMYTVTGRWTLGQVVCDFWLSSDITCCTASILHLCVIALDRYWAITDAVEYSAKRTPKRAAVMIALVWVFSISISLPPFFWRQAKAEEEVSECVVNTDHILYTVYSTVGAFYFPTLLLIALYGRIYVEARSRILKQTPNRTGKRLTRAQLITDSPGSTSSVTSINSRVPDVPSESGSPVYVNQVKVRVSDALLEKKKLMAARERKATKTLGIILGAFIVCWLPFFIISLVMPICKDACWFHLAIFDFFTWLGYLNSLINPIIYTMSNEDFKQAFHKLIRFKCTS
Sequence of OPRM1 (P35372 whole entry): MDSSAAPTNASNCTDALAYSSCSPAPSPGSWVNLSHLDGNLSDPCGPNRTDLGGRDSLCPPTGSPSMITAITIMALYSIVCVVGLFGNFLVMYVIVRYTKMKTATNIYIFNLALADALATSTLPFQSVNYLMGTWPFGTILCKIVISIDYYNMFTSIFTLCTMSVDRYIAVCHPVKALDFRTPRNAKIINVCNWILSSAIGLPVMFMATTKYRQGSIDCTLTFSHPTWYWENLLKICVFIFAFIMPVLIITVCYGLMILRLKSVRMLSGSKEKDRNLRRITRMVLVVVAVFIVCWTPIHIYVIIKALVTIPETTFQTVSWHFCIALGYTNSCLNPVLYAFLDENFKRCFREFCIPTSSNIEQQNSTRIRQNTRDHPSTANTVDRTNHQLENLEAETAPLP

As for “CXCL4: chemokine, also known as platelet factor 4”, in [1], the EC50 was 9000 nM.
As for Melanotan II, the “EC80” value in assay [2] turned out to be 340 nM; in assay [3], 30 nM; in assay [4] it was 37 nM.
As for Cortistatin-14, the “EC80” value in assay [5] came out at 8100 nM. This counts as single-digit micromolar.
Regarding Motilin, the “EC80” value in [6] was 110 nM. This counts as sub-micromolar.
For Angiotensin II, the “EC80” value in assay [7] amounted to 150 nM.
Turning to `NCCc1c[nH]c2ccc(O)cc12` [Serotonin], the “EC80” value worked out at 630 nM in [8]; 6600 nM in [9]; 7700 nM in assay [10]; 7100 nM in assay [11]; 1300 nM in [12].
As for `CCCCC/C=C\C[C@@H](O)/C=C/C=C/C=C\[C@@H](O)CCCC(=O)O` [Leukotriene B4], the “EC80” value in assay [13] turned out to be 5000 nM.
On to Neuromedin U-25, for which the “EC80” value in assay [14] was 92 nM.
In the case of met-Enkephalin, the “EC80” value in assay [15] came out at 54000 nM.
Take Orphanin FQ: in assay [16], the “EC80” value amounted to 150 nM.

B1: CXCL14: mature 77-amino acid chemokine, 9.4 kDa, also known as BRAK; purchased from BIOZOL (protein)
chain: SKCKCSRKGPKIRYSDVKKLEMKPKYPHCEEKMVIITTKSVSRYRGQEHCLHPKLQSTKRFIKWYNAWNEKRRVYEE
modifications: two disulfide bonds (native chemokine fold); entity numbering = mature + 1
For B1, the “pEC50 MRGPRB2” value in assay [17] (Fig. 6c source data, mean, SD and N in columns beside it (N = 2-3)) is on record as 6.032. For the same molecule, in assay [17] (Fig. 6c, mean as listed in the unpaired t test with Welch correction, MRGPRX2 vs. MRGPRB2), the “Mean of MRGPRB2 (pEC50)” value turned out to be 6.03. Besides, the EC50 in [18] amounted to 905 ± 548 nM; in [19], 504 nM; in assay [20] (CHEM-1 cells recombinantly expressing MRGPRX2, Fluo-8, FLIPR, read-out: EC50, calcium mobilization assays), 889 nM. The pEC50 in assay [20] (replicate column 1) stood at 5.955; in [20] (replicate column 2), 6.033; in [20] (replicate column 3), 6.061; in assay [20] (replicate column 4) it was 6.051.
